According to the NIST ThermoML archive (doi:10.1016/j.jct.2017.11.007):

Assay: mn = molality of the nth substance listed, in mol/kg
Conditions: 74.66 kPa, Liquid; for speed of sound: Frequency=3 MHz, Single path-length method; for mass density: Vibrating tube method

Cc1ccnc([N-]S(=O)(=O)c2ccc(N)cc2)n1.[Na+] + O
Conditions | mass density, 278.15 K [kg/m3] | mass density, 283.15 K [kg/m3] | mass density, 288.15 K [kg/m3] | speed of sound, 278.15 K [m/s] | speed of sound, 283.15 K [m/s] | speed of sound, 288.15 K [m/s] | speed of sound, 293.15 K [m/s]
m1 = 0.005 | 1000.56 | 1000.28 | 999.679 | 1428.1 | 1448.9 | 1467.5 | 1483.7
m1 = 0.008 | 1000.91 | 1000.63 | 1000.02 | 1428.7 | 1449.4 | 1467.8 | 1484
m1 = 0.01 | 1001.15 | 1000.87 | 1000.25 | 1429.2 | 1449.8 | 1468.2 | 1484.4
m1 = 0.01486 | 1001.72 | 1001.42 | 1000.8 | 1430.2 | 1450.8 | 1469.3 | 1485.3
m1 = 0.02002 | 1002.33 | 1002.02 | 1001.39 | 1431 | 1451.6 | 1469.9 | 1486.1
m1 = 0.025 | 1002.91 | 1002.6 | 1001.96 | 1432.2 | 1452.7 | 1470.9 | 1487
m1 = 0.03001 | 1003.5 | 1003.18 | 1002.53 | 1433.4 | 1453.7 | 1471.8 | 1487.8
m1 = 0.035 | 1004.08 | 1003.75 | 1003.09 | 1434.2 | 1454.6 | 1472.7 | 1488.6
m1 = 0.03931 | 1004.59 | – | – | 1435.5 | – | – | –
m1 = 0.04002 | – | 1004.33 | 1003.66 | – | 1455.6 | 1473.7 | 1489.5
m1 = 0.04499 | – | – | 1004.23 | – | – | 1474.6 | 1490.3
m1 = 0.045 | 1005.25 | 1004.9 | – | 1436.4 | 1456.7 | – | –
m1 = 0.04968 | – | 1005.43 | – | – | 1457.4 | – | –
m1 = 0.05 | 1005.83 | – | 1004.8 | 1437.5 | – | 1475.4 | 1491.2
m1 = 0.05501 | – | – | 1005.37 | – | – | 1476.5 | 1492
m1 = 0.05502 | 1006.42 | 1006.05 | – | 1438.5 | 1458.5 | – | –
m1 = 0.05998 | 1007 | 1006.62 | 1005.94 | 1439.4 | 1459.4 | 1477.2 | 1492.8
